Data reported in patent US20150239889A1, “PYRAZOLOPYRIMIDINE COMPOUND” (MITSUBISHI TANABE PHARMA CORPORATION, priority 2012, published 2015).

How the values were obtained:
human HIF-PHD2 = molecular target: T1, human HIF-PHD2 (Homo sapiens, UniProt Q9GZT9); assay: HIF-PHD inhibition assay (fluorescence polarization), human HIF-PHD2; assay type: biochemical; conditions: 2-oxoglutaric acid 3.33 μmol/L
T1 construct: purchased CrystalGenomics Ltd
Method in brief: (§1)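 Measured signal: mP difference, after versus before enzyme addition, representing enzyme activity. Detection relied on a FAM-tagged, ACA-spaced fluorescent probe.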

human HIF-PHD3 = molecular target: T2, human HIF-PHD3 (Homo sapiens, UniProt Q9H6Z9); assay: HIF-PHD inhibition assay (fluorescence polarization), human HIF-PHD3; assay type: biochemical; conditions: 2-oxoglutaric acid 166 μmol/L
T2 construct: purchased CrystalGenomics Ltd
T2 sequence (Q9H6Z9 whole entry): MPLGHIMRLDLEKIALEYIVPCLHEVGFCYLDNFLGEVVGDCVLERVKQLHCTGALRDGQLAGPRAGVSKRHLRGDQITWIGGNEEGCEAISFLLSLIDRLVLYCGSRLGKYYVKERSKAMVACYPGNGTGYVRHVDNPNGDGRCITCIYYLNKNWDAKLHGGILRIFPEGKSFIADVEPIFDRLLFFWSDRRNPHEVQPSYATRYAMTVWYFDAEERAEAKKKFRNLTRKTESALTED
Method in brief: as §1

Hep3B cells = assay: EPO production assay (ELISA of culture supernatant); assay type: cell-based; conditions: Homo sapiens, 3 μmol/L test compound, 48 hours, relative to control (0.1% DMSO), read-out: EPO production stimulation rate with 3 μmol/L test compound
Method in brief: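 Values are fold EPO production at 3 μmol/L compound relative to untreated control, quantified by ELISA of culture supernatant. Hep3B cells were exposed for 48 h in MEM containing 0.5% FBS and 0.1% DMSO.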

T1 sequence (Q9GZT9 2-426 limits assumed): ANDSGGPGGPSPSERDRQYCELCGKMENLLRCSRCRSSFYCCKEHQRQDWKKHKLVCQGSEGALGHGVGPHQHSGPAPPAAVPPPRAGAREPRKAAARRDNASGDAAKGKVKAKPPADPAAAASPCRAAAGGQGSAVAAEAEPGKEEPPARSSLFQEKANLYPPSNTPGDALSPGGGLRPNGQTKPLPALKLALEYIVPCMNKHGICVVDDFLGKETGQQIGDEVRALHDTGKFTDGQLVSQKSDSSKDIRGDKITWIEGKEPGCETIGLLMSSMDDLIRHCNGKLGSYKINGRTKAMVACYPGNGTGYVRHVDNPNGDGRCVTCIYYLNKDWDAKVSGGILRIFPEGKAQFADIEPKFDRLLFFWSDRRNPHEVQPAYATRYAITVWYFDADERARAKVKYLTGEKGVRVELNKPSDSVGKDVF

SMILES | IC50 (human HIF-PHD2) [nM] | IC50 (human HIF-PHD3) [nM] | fold induction at 3 µM (Hep3B cells)
Cc1cc(OCCCn2ncc3nc(-n4cc(C(=O)O)cn4)nc(O)c32)cc(C)c1Cl [Example 182] | 22 | 56 | 9.1
O=C(O)c1cnn(-c2nc(O)c3nn(C(c4ccc(Cl)cc4)c4ccc(Cl)cc4)cc3n2)c1 [Example 239] | 5.5 | 99 | 1.4
O=C(O)c1cnn(-c2nc(O)c3c(cnn3CCCOc3ccc(-c4ccccc4)cc3)n2)c1 [Example 196] | 20 | 300 | 25
O=C(O)c1cnn(-c2nc(O)c3c(cnn3Cc3cccc(-c4cccc(C(F)(F)F)c4)c3)n2)c1 [Example 45] | 50 | 170 | 8.9
O=C(O)c1cnn(-c2nc(O)c3c(cnn3Cc3ccc(-c4ccccc4OC(F)(F)F)cc3F)n2)c1 [Example 86] | 21 | 330 | 2.5
O=C(O)c1cnn(-c2nc(O)c3c(cnn3CC3CCC4(CC3)CC4)n2)c1 [Example 378] | 23 | 290 | 9.6
O=C(O)c1cnn(-c2nc(O)c3c(cnn3CCc3cccc(Cl)c3)n2)c1 [Example 114] | 20 | 300 | 5.2
O=C(O)c1cnn(-c2nc(O)c3c(cnn3Cc3ccc(F)c(-c4ccccc4)c3)n2)c1 [Example 51] | 34 | 190 | 3.9
O=C(O)c1cnn(-c2nc(O)c3c(cnn3CCCN(c3ccccc3)c3ccccc3)n2)c1 [Example 168] | 23 | 200 | 66
O=C(O)c1cnn(-c2nc(O)c3c(cnn3Cc3cccc(C(F)(F)F)c3)n2)c1 [Example 9] | 33 | 410 | 2.8
O=C(O)c1cnn(-c2nc(O)c3c(cnn3Cc3ccc(-c4ccc(F)cc4)cc3)n2)c1 [Example 66] | 17 | 110 | 33
C[C@H]1CC[C@H](Cn2nc(F)c3nc(-n4cc(C(=O)O)cn4)nc(O)c32)CC1 [Example 218] | 15 | 750 | 3
O=C(O)c1cnn(-c2nc(O)c3c(cnn3Cc3ccc4c(c3)CCCC4)n2)c1 [Example 36] | 15 | 170 | 1.4
O=C(O)c1cnn(-c2nc(O)c3c(cnn3CCCOc3cc(C(F)(F)F)cc(C(F)(F)F)c3)n2)c1 [Example 183] | 63 | 340 | 7.5
O=C(O)c1cnn(-c2nc(O)c3c(cnn3CCOc3cccc(C(F)(F)F)c3)n2)c1 [Example 202] | 59 | 300 | 3.6
CC(C)(Cn1ncc2nc(-n3cc(C(=O)O)cn3)nc(O)c21)Oc1ccc2c(c1)CCCC2 [Example 214] | 17 | 220 | 6.8
O=C(O)c1cnn(-c2nc(O)c3c(cnn3CCOc3ccccc3C(F)(F)F)n2)c1 [Example 201] | 130 | 860 | 3.2
O=C(O)c1cnn(-c2nc(O)c3c(cnn3CCCC3CCCCC3)n2)c1 [Example 161] | 31 | 150 | 3.1
CCCC(C)(C)Cn1ncc2nc(-n3cc(C(=O)O)cn3)nc(O)c21 [Example 493] | 86 | 550 | 2.8
O=C(O)c1cnn(-c2nc(O)c3c(cnn3Cc3ccc4ccccc4c3F)n2)c1 [Example 34] | 17 | 240 | 1.2
O=C(O)c1cnn(-c2nc(O)c3c(cnn3CC3CCN(c4ccc(C(F)(F)F)cc4)CC3)n2)c1 [Example 170] | 19 | 280 | 19
O=C(O)c1cnn(-c2nc(O)c3c(cnn3CCCOc3ccc(OCc4ccccc4)c(F)c3)n2)c1 [Example 181] | 35 | 220 | 34
COc1ccc(-c2cccc(Cn3ncc4nc(-n5cc(C(=O)O)cn5)nc(O)c43)c2)cc1 [Example 42] | 14 | 1400 | 9.1
Cc1ccc(C(C(C)C)n2ncc3nc(-n4cc(C(=O)O)cn4)nc(O)c32)cc1 (stereo not drawn) [Example 25] | 70 | 2900 | 2.9
O=C(O)c1cnn(-c2nc(O)c3c(n2)c(F)nn3CC2CCC3(CCC3)CC2)c1 [Example 467] | 15 | 270 | 3.2
O=C(O)c1cnn(-c2nc(O)c3c(cnn3Cc3ccc(-c4cc(F)ccc4F)cc3)n2)c1 [Example 77] | 8.7 | 130 | 9.8

SMILES | IC50 (human HIF-PHD2) [nM] | IC50 (human HIF-PHD3) [nM] | fold induction at 3 µM (Hep3B cells)
O=C(O)c1cnn(-c2nc(O)c3c(cnn3C3CCCCC3)n2)c1 [Example 135] | 74 | 380 | 6.1
O=C(O)c1cnn(-c2nc(O)c3nn(Cc4ccccc4-c4ccccc4)cc3n2)c1 [Example 241] | 8.7 | 370 | 1.2
O=C(O)c1cnn(-c2nc(O)c3nn(CCC(c4ccccc4)c4ccccc4)cc3n2)c1 [Example 248] | 15 | 99 | 3.2
O=C(O)c1cnn(-c2nc(O)c3c(cnn3CC3CCCCCC3)n2)c1 [Example 158] | 24 | 310 | 1.2
O=C(O)c1cnn(-c2nc(O)c3c(cnn3C[C@H]3CC[C@H](c4ccccc4)CC3)n2)c1 [Example 155] | 10 | 70 | 11
Cc1ncccc1-c1ccc(Cn2ncc3nc(-n4cc(C(=O)O)cn4)nc(O)c32)cc1F [Example 106] | 7.4 | 28 | 5.2
CC1(C)CCC(Cn2ncc3nc(-n4cc(C(=O)O)cn4)nc(O)c32)CC1 [Example 380] | 20 | 400 | 3.9
Cc1ccc2cc(CCn3ncc4nc(-n5cc(C(=O)O)cn5)nc(O)c43)ccc2c1 [Example 127] | 6.2 | 62 | 17
CC(C)(C)c1ccc(OCCCn2ncc3nc(-n4cc(C(=O)O)cn4)nc(O)c32)cc1 [Example 178] | 24 | 570 | 37
O=C(O)c1cnn(-c2nc(O)c3c(cnn3Cc3cccc(-c4ccccc4)c3)n2)c1 [Example 39] | 25 | 350 | 5
O=C(O)c1cnn(-c2nc(O)c3c(cnn3Cc3ccc(-c4cccc(C(F)(F)F)c4)cc3)n2)c1 [Example 65] | 11 | 180 | 20
Cc1nn([C@@H](C)c2ccc(Cl)c(Cl)c2)c2c(O)nc(-n3cc(C(=O)O)cn3)nc12 [Example 447] | 20 | 560 | 5.4
C[C@@H](c1ccc2ccccc2c1)n1nc(F)c2nc(-n3cc(C(=O)O)cn3)nc(O)c21 [Example 442] | 11 | 360 | 3.3
Cc1cc2c(cc1OCCCn1ncc3nc(-n4cc(C(=O)O)cn4)nc(O)c31)CCCC2 [Example 189] | 20 | 150 | 8.7
O=C(O)c1cnn(-c2nc(O)c3c(cnn3CCC3CCCCC3)n2)c1 [Example 160] | 71 | 380 | 3.6
O=C(O)c1cnn(-c2nc(O)c3c(cnn3Cc3ccc(-c4cccc(F)c4)cc3)n2)c1 [Example 63] | 14 | 110 | 18
O=C(O)c1cnn(-c2nc(O)c3c(cnn3CCC3CCN(c4ccc(C(F)(F)F)cc4)CC3)n2)c1 [Example 172] | 34 | 250 | 19
O=C(O)c1cnn(-c2nc(O)c3c(cnn3Cc3c(F)cc(-c4ccccc4)cc3F)n2)c1 [Example 79] | 16 | 200 | 14
O=C(O)c1cnn(-c2nc(O)c3c(cnn3Cc3ccc4ccccc4c3)n2)c1 [Example 29] | 37 | 200 | 4.2
O=C(O)c1cnn(-c2nc(O)c3c(cnn3Cc3ccc(-c4ccccc4C(F)(F)F)cc3F)n2)c1 [Example 84] | 13 | 200 | 4.3
CC(C)(Cc1ccc2ccccc2c1)Cn1ncc2nc(-n3cc(C(=O)O)cn3)nc(O)c21 [Example 133] | 110 | 370 | 3.9
C[C@@H](c1cccc(-c2ccccc2)c1)n1ncc2nc(-n3cc(C(=O)O)cn3)nc(O)c21 [Example 54] | 18 | 250 | 5.6
O=C(O)c1cnn(-c2nc(O)c3c(cnn3CCCn3ccc4ccccc43)n2)c1 [Example 167] | 17 | 140 | 2.1
O=C(O)c1cnn(-c2nc(O)c3c(cnn3Cc3cccc(-c4ccc(C(F)(F)F)cc4)c3)n2)c1 [Example 41] | 22 | 340 | 9.5
O=C(O)c1cnn(-c2nc(O)c3c(cnn3CCC3Cc4ccccc4C3)n2)c1 [Example 164] | 21 | 210 | 8.8
Cc1cccc(-c2ccc(Cn3ncc4nc(-n5cc(C(=O)O)cn5)nc(O)c43)cc2)c1 [Example 64] | 18 | 66 | 23
